Reference: patent US20240302368A1, “MIGRATION OF HUMAN PERIPHERAL LEUKOCYTES IN RESPONSE TO CHEMOTACTIC FACTORS DURING PREGNACY” (The Governors of the University of Alberta, priority 2021, published 2024)
Entries after “also recorded” stand apart in the source; their conditions may differ.

T1: IL-1 receptor (Mus musculus, UniProt P13504)
T1 construct: host or cells: pregnant mice, in vivo
T1 sequence (P13504 20-576): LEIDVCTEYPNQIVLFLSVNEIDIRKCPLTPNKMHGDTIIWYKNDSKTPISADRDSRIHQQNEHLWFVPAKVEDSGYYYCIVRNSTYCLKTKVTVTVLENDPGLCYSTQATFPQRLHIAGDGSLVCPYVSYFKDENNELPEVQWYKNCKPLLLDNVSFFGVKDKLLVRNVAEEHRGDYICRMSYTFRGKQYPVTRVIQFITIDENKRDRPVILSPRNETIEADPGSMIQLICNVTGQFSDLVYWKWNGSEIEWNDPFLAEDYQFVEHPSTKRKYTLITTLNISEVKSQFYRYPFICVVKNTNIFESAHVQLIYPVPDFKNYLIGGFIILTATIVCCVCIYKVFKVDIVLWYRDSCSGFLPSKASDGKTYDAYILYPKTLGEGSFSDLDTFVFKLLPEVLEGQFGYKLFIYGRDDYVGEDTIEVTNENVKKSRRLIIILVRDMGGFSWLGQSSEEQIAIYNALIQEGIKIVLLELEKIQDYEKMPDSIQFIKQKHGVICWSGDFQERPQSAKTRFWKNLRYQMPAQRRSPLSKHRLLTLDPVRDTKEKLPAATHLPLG

T2: IL-1 receptor (IL-1R) (Mus musculus, UniProt P13504)
T2 construct: host or cells: pregnant mice, in vivo
T2 sequence (P13504 20-576): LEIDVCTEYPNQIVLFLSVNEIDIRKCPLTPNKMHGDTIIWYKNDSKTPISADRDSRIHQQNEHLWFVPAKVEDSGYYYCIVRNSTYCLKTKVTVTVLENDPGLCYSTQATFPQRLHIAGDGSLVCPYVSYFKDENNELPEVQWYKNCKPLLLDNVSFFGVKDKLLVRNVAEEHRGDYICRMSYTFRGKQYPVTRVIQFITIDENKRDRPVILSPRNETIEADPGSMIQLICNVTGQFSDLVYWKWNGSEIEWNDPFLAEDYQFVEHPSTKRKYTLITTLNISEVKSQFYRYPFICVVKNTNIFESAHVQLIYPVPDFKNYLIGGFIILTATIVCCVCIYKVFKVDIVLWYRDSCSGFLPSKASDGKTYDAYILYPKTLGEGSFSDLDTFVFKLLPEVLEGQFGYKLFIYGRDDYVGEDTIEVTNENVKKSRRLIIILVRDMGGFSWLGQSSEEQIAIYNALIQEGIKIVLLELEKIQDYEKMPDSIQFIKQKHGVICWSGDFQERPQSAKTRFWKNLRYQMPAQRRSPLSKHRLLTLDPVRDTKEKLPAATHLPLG


What was measured:
[1] = target: T1, IL-1 receptor; conditions: LPS-treated mice; cited from earlier work
[2] = mouse; cited from earlier work
[3] = test system: CD-1 mice; test: Neutrophil (Ly-6G+) invasion of mouse lower uterus and fetal brain, immunohistochemistry; assay type: in vivo; conditions: IL-1β on GD 16 without or with rytvela; compared to sham control; p<0.05
Text: (§1) CD-1 mice were ordered from Charles-River Laboratories Canada (Montreal, QC, Canada) and housed by Health Sciences Laboratory Animal Services at the University of Alberta. (Edmonton, AB, Canada) on a standard diet. Six groups of mice were euthanized at GD15, 17, 18, 18.5, 19 during spontaneous labor, and post-partum (PP)-1 Four groups of mice were anesthetized under isoflurane and a 1.5 cm-tall median incision was made in the lower abdominal wall. The lower segment of the right uterine hom was exposed, IL-1β (3 μg) or vehicle (0.9% saline) was injected between two fetal membranes, and the abdominal muscle layer and skin were sutured. Rytvela (1 mgikg, Elim Biopharmaceuticals, Hayward, CA) or vehicle (0.9% saline) was injected i.p. in a total volume of 100 μL saline, the first dose of which was given 30 min prior to administration of stimuli and three doses every 12 h thereafter. Animals were monitored for the onset of preterm labor (PTL) using infrared video camera recording commencing at GD16.5. Mice were euthanized at the onset of PTL or at GD17 From all ten groups of mice, lower uteri, upper uteri, placentas, fetal membranes and cervices were collected and normalized to wet tissue weight (100 mg/mL) in Dulbecco's Modified Eagle's Medium (DMEM) F-12 (Thermo Fisher Scientific, MA, USA). These tissues were homogenized by TissueLyser II (QIAGEN, Hilden, Germany) according to the manufacturer's protocol and centrifuged at 4° C., 13,000×g for 10 min to extract total protein. Maternal whole blood was collected via cardiac puncture. Whole fetuses (n=2 per dam) were also collected.
Six cryosections (7 μm) per treatment group were prepared from snap-frozen lower uteri and fetal heads (n=2 per dam) and stained for neutrophils using a goat anti-mouse Ly-6G antibody (Invitrogen, Carlsbad, CA, USA) and a rat anti-goat secondary antibody tagged with an Alexa Fluor 488 fluorescence marker (Invitrogen). Cells were counterstained using Hoechst 33342 (Thermo Fisher Scientific) and tissue homology was confirmed with a hematoxylin and eosin stain (Thermo Fisher Scientific). Four different fields (20× optical zoom) were counted per section by two observers blinded to the specimen details. Areas containing blood vessels and leukocytes within blood vessels were excluded. The arithmetic mean was calculated for each sample between the two observers. In the fetus, we focused on leukocyte invasion of the brain because of the evidence associating maternal inflammation and adverse outcomes to the fetal brain (15, 28).

[4] = test system: CD-1 mice; test: IL-1β-induced preterm birth (PTB) and fetal death in pregnant mice; assay type: in vivo, mouse; conditions: for fetal death: IL-1β on GD 16 without or with rytvela, fetuses at GD 17
Text: as §1

[5] = test system: mouse leukocytes; test: Mouse leukocyte migration assay (mLMA) with GD 18.5 lower uterus chemoattractant; assay type: in vivo; conditions: GD 17 after IL-1β on GD 16, without or with rytvela, p<0.05
Text: (§2) CD-1 mice were ordered from Charles-River Laboratories Canada (Montreal, QC, Canada) and housed by Health Sciences Laboratory Animal Services at the University of Alberta. (Edmonton, AB, Canada) on a standard diet. Six groups of mice were euthanized at GD15, 17, 18, 18.5, 19 during spontaneous labor, and post-partum (PP)-1 Four groups of mice were anesthetized under isoflurane and a 1.5 cm-tall median incision was made in the lower abdominal wall. The lower segment of the right uterine hom was exposed, IL-1β (3 μg) or vehicle (0.9% saline) was injected between two fetal membranes, and the abdominal muscle layer and skin were sutured. Rytvela (1 mgikg, Elim Biopharmaceuticals, Hayward, CA) or vehicle (0.9% saline) was injected i.p. in a total volume of 100 μL saline, the first dose of which was given 30 min prior to administration of stimuli and three doses every 12 h thereafter. Animals were monitored for the onset of preterm labor (PTL) using infrared video camera recording commencing at GD16.5. […]
(§3) Total leukocytes were isolated from whole blood using HetaSep (Stemcell Technologies Canada Inc., BC. Canada) according to the manufacturer's protocol. […] Fluorescence in each well was measured using a Fluoroskan Ascent (Thermo Fisher Scientific), and the number of chemoattracted leukocytes was calculated using 4 parameter logistic regression.

[6] = test system: peripheral mouse leukocytes; test: Cytokine mRNA abundance in peripheral leukocytes of pregnant mice, RT-qPCR; assay type: in vivo; conditions: GD 17 after IL-1β on GD 16, without or with rytvela; p<0.05
Text: as §2, with “Rytvela (1 mgikg, Elim Biopharmaceuticals, Hayward, CA) or vehicle (0.9% saline) was injected i.p. in a total volume of 100 μL saline, the first dose of which was given 30 min prior to administration of stimuli and three doses every 12 h thereafter.” left out
Total RNA was extracted from mouse whole blood using the RNeasy protect animal blood system (Qiagen, Hilden, Germany) according to the manufacturer's protocol. RNA concentration were determined using a NanoDrop 1000 spectrophotometer to measure the optical density (OD) photometrically at 280 nm and 260 nm (an OD260 nm/280 nm ratio of >1.8 was considered protein-free RNA). cDNA was synthesized from 500 ng RNA using qScript cDNA SuperMix (Quanta Biosciences, MA, USA) according to the manufacturer's protocol. […]

[7] = target: T2, IL-1 receptor (IL-1R); conditions: PTB induced by IL-1β, LTA or LPS; cited from earlier work
[8] = test system: mouse lower uterus; test: KC and MIP-2 protein in mouse lower uterus extracts, multiplex; assay type: in vivo; conditions: IL-1β on GD 16, lower uterus at GD 17
Text: as §2, with “Rytvela (1 mgikg, Elim Biopharmaceuticals, Hayward, CA) or vehicle (0.9% saline) was injected i.p. in a total volume of 100 μL saline, the first dose of which was given 30 min prior to administration of stimuli and three doses every 12 h thereafter.” left out
Mouse lower uterus tissue was suspended in DMEM-F12 medium (Thermo Fisher Scientific Inc., Ottawa, ON, Canada) at 100 mg wet tissue weight/mL and homogenized by TissueLyser II (Qiagen, Hilden, Germany) according to the manufacturer's instructions. […] Keratinocyte chemoattractant (KC) and macrophage inflammatory protein (MIP)-2 levels were measured by Bio-Plex Multiplex Immunoassay kit (Bio-Rad Laboratories, Hercules, CA, USA) according to the manufacturer's instructions.

[9] = test system: mouse lower uterus; test: Mouse lower uterine chemoattractant assessed by leukocyte migration assay (LMA); assay type: in vivo; conditions: IL-1β on GD 16, chemoattractant on GD 17
Text: as §2
as §3, with “regression. […]” for “regression.”

[10] = test system: hFM explants; test: hFM explants treated with IL-1β; conditioned medium tested in LMA; assay type: cell-based, human
Experimental: Leukocyte migration assay (LMA). The LMA was carried out with the Modified Boyden chemotaxis chambers (AP48; Neuro Probe, Gaithersburg, MD, USA) as we published (19). The chamber is divided into the upper and lower berths. Twenty-five microliters of fetal membrane extracts were placed in the lower chamber of each well. DMEM, as a negative control, was placed in the lower chamber. A polycarbonate membrane with 3 μm pores (Neuro Probe, Gaithersburg. MD, USA) was next placed over the lower chamber, followed by a rubber gasket. Then 100,000 isolated leukocytes from whole blood of pregnant women were placed in the upper chamber of each well. The chambers were incubated for 90 min at 37′C in a humidified air incubator containing 5% CO2. After incubation, migrated leukocytes were removed from the lower chamber and put into 5 mL BD Falcon™ polystyrene round bottom tubes (Thermo Fischer Scientific K.K., Yokohama, Japan). Three hundred microliters of OptiLyse (Beckman Coulter, Beckman Coulter, Inc., Brea, CA, USA) were added to lyse RBCs, and the sample was vortexed immediately for 1 sec. The tube was incubated for 15 min at room temperature (20-25° C.) while protected from light. […] 1×PBS was added to each tube. […] The lower chamber samples were then kept covered in a 4′C cold room until quantification using flow cytometry (BD FACS Verse, BD Biosciences, Tokyo, Japan). […]

[11] = test system: TL leukocytes; test: TL leukocytes incubated with hFM conditioned medium -/+ IL-1β; double conditioned medium as chemoattractant in LMA; assay type: cell-based, human; conditions: TL leukocytes treated with IL-1β plus hFM explant conditioned medium; fresh TL leukocytes migrate
Experimental: Leukocyte migration assay (LMA). The LMA for FIGS. 6 and 7 was performed as described above with the exception that 200,000 leukocytes were placed into the upper chamber. The LMA for FIGS. 3, 5 and FIG. 10 was performed using non-commercial, 3D printed Boyden chambers that produced nearly identical results to our published work with commercial Boyden chambers with the exception that the cutoff for predicting delivery within 7 days was 4575 cells (see FIG. 10 for more information).
Leukocyte Incubation with hFM Conditioned Medium. Conditioned medium from hFM explants was prepared as described previously (23). TL leukocytes were incubated with this single conditioned medium for 1 h at 37° C. and gentle agitation using a stir bar to prevent clumping. The supernatant was isolated via density centrifugation and used as the chemoattractant in an LMA to assess the further contribution of the leukocytes to the conditioned medium. This is referred to as ‘double conditioned medium.’ The pelleted TL leukocytes were resuspended in RPMI, and their responsiveness to GCF was assessed using an LMA.

| Molecule | neutrophil infiltration (invasion) of fetal membranes [1] | transfer from mother to fetus [2] | neutrophil density in fetal brain [3] | neutrophil density in lower (maternal) uterus [3] | PTB (in words) ([4]; FIG. 11A, n=5-7 per group) | fetal death [4] | fetal death ([4]; listed as Rytvela) | PTB rate ([4]; rytvela co-administered with IL-1β (GD 16)) [%] | mouse leukocyte migration [5] | leukocyte mRNA abundance of IL-1β, IL-6, TNF-α and CCL2 [6] | PTB [7] | KC protein in lower uterus [8] | MIP-2 protein in lower uterus [8] | lower uterine chemoattractant [9] | chemoattractant release from hFM explants ([10]; TNL and TL hFM explants -/+ IL-1β, TL leukocytes in LMA) | TNL leukocyte sensitivity to migration after hFM explant conditioned medium ([10]; hFM explants pretreated with IL-1β 6 h, TNL leukocytes incubated 1 h, TL chemoattractant) | PTB rate ([4]; IL-1β administered on GD 16, PTB on GD 17) [%] | leukocyte chemoattractant release [11] |
| --- | --- | --- | --- | --- | --- | --- | --- | --- | --- | --- | --- | --- | --- | --- | --- | --- | --- | --- |
| rytvela | blocked | does not transfer from mother to fetus | blocked the increase in neutrophil density | blocked the increase in neutrophil density | inhibited | normal GD 17 fetuses | prevented fetal death | 0 | blocked | blocked | blocked | – | – | – | – | – | – | – |
| IL-1β: Interleukin (IL)-1β, mediator of infectious and sterile-inflammatory preterm birth; used to induce PTB in mice (protein, UniProt P10749 118-269, looked up) Interleukin-1 beta: VPIRQLHYRLRDEQQKSLVLSDPYELKALHLNGQNINQQVIFSMSFVQGEPSNDKIPVALGLKGKNLYLSCVMKDGTPTLQLESVDPKQYPKKKMEKRFVFNKIEVKSKVEFESAEFPNWYISTSQAEHKPVFLGNNSGQDIIDFTMESVSS | – | – | increased detection of Ly-6G+ neutrophils | increased detection of Ly-6G+ neutrophils | – | increased fetal death; also recorded: undergoing resorption | – | – | increased leukocyte migration | – | – | stimulated increases | stimulated increases | did not stimulate an increase | did not promote more chemoattractant release | had no effect | 86 | greater leukocyte chemoattractant release |
